Laboratory results reported in US8232406B2, “c-MET protein kinase inhibitors” (Vertex Pharmaceuticals Incorporated, priority 2006, dated 2012).

Molecular target: c-MET (Homo sapiens, UniProt P08581)
Experiment: Ki determination for the inhibition of c-MET (standard radiometric 33P-ATP kinase assay, polyE4Y substrate)
Type: biochemical
Settings: 1.0 nM c-Met, 35 μM ATP, 0.5 mg/mL polyE4Y, 20 min; competitive tight-binding fit
How it was run: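 Radiometric assay of 33P transfer from 33P-ATP (35 μM) to polyE4Y (0.5 mg/mL) by 1.0 nM c-Met in 100 mM HEPES pH 7.5, 10 mM MgCl2, 25 mM NaCl, 0.01% BSA, 1 mM DTT. TCA-quenched after 20 min, filter-captured, scintillation-counted; Ki fitted to a competitive tight-binding model.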

Chain of c-MET (P08581 25-1390): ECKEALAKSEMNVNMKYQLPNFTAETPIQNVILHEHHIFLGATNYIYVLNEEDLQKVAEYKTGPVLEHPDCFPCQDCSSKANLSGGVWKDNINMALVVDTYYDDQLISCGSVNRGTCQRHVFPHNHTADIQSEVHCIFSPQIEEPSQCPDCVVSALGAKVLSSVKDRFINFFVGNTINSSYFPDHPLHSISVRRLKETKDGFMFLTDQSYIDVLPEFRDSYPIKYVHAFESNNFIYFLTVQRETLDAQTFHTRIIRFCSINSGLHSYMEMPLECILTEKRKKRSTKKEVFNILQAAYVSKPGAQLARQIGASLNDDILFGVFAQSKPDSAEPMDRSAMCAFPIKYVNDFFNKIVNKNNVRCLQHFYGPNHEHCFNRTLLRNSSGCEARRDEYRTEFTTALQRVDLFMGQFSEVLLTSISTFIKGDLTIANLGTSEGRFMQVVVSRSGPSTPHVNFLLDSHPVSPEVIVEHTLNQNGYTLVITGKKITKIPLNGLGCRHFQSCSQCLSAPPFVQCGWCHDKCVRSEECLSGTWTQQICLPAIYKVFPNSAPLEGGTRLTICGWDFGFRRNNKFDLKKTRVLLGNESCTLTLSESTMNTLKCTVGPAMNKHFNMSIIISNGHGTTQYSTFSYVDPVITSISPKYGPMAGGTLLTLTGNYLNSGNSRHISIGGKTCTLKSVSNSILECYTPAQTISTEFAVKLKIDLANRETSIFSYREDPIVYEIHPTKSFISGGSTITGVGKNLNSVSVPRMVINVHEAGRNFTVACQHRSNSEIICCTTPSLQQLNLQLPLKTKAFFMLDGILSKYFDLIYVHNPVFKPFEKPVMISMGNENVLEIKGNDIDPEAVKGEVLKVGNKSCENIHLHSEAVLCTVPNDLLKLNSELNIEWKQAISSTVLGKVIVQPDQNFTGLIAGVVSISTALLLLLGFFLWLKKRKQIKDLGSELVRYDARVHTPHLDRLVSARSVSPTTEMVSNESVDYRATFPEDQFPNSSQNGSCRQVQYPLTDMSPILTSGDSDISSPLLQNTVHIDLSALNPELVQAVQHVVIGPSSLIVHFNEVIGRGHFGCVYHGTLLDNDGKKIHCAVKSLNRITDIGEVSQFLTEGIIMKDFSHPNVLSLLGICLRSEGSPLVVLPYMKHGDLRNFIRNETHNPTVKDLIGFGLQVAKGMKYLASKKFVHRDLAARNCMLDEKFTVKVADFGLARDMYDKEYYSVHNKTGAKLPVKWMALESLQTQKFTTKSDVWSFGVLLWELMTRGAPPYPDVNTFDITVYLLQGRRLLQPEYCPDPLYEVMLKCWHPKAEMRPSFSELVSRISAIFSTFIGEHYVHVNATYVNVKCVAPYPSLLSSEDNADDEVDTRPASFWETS

| SMILES | Ki [µM] |
| --- | --- |
| Nc1ncc(-c2cnn([C@H]3CCCNC3)c2)cc1-c1nnnn1-c1cccc(F)c1F [I-A-405] | ≤ 0.1 |
| CC(c1ccc(-c2cnc(N)c(-c3nnnn3-c3cccc(Cl)c3Cl)c2)cc1)N(C)C (stereo not drawn) [I-A-100] | ≤ 0.1 |
| CC(c1ccc(-c2cnc(N)c(-c3nnnn3-c3cccc(F)c3F)c2)s1)N1CCCC1 (stereo not drawn) [I-A-262] | ≤ 0.1 |
| Nc1ncc(-c2cccc(Cl)c2)cc1-c1nnnn1-c1cccc(F)c1F [I-A-225] | 0.1 to 1 |
| Nc1ncc(-c2ccncc2)cc1-c1nncn1-c1cccc(Cl)c1Cl [I-A-71] | 0.1 to 1 |
| CN(C(=O)Nc1cccc(-c2cnc(N)c(-c3nnnn3-c3cccc(F)c3F)c2)c1)c1ccccc1 [I-A-274] | 0.1 to 1 |
| Nc1ncc(-c2cc(F)c(N)c(F)c2)cc1-c1nnnn1-c1cccc(F)c1F [I-A-303] | ≤ 0.1 |
| Nc1ncc(-c2ccc(Cl)cc2)cc1-c1nncn1-c1cccc(F)c1F [I-A-114] | 0.1 to 1 |
| Nc1ncc(-c2cnn(C3CCNCC3)c2)cc1-c1nnnn1-c1cccc(Cl)c1Cl [I-A-371] | ≤ 0.1 |
| COc1ccncc1-c1cnc(N)c(-c2nncn2-c2cccc(F)c2F)c1 [I-A-110] | 0.1 to 1 |
| Nc1ncc(-c2cccnc2)cc1-c1nnnn1-c1cccc(F)c1F [I-A-20] | 0.1 to 1 |
| CN(C)CCn1cc(-c2cnc(N)c(-c3nnnn3-c3cccc(F)c3F)c2)cn1 [I-A-406] | ≤ 0.1 |
| CN(C)CCn1cc(-c2cnc(N)c(-c3nnnn3-c3cccc(Cl)c3Cl)c2)cn1 [I-A-410] | ≤ 0.1 |
| CN(C)c1ccc(-c2cnc(N)c(-c3nncn3-c3cccc(Cl)c3Cl)c2)cc1 [I-A-72] | 0.1 to 1 |
| Nc1ncc(-c2ccc(CO)cc2)cc1-c1nnnn1-c1cccc(Cl)c1Cl [I-A-90] | ≤ 0.1 |
| COCCOC(=O)Nc1cccc(-c2cnc(N)c(-c3nnnn3-c3cccc(F)c3F)c2)c1 [I-A-271] | 0.1 to 1 |
| CN(C)c1ccc(-c2cnc(N)c(-c3nnnn3-c3cccc(F)c3F)c2)cc1 [I-A-234] | ≤ 0.1 |
| Cn1cc(-c2cnc(N)c(-c3nnnn3-c3cccc(F)c3F)c2)cn1 [I-A-249] | ≤ 0.1 |
| Nc1ncc(-c2cc3c(s2)CCNCC3)cc1-c1nnnn1-c1cccc(F)c1F [I-A-430, 3-(1-(2,3-Difluorophenyl)-1H-tetrazol-5-yl)-5-(5,6,7,8-tetrahydro-4H-thieno[3,2-d]azepin-2-yl)pyridin-2-amine] | ≤ 0.1 |
| Nc1ccc(-c2cnc(N)c(-c3nnnn3-c3cccc(F)c3F)c2)cc1[N+](=O)[O-] [I-A-312] | ≤ 0.1 |
| N#Cc1ccc(-c2cnc(N)c(-c3nnnn3-c3cccc(F)c3F)c2)cc1 [I-A-229] | 0.1 to 1 |

Results, then the compound that gave them:

| Ki [µM] | SMILES |
| --- | --- |
| 0.1 to 1 | COc1ccc(F)cc1-n1nnnc1-c1cc(-c2cnn(C3CCNCC3)c2)cnc1N [I-A-633] |
| 0.1 to 1 | Nc1ncc(-c2ccc3c(c2)CCNC3)cc1-c1nnnn1-c1cccc(F)c1F [I-A-509] |
| ≤ 0.1 | Nc1ncc(-c2ccn(C3CCNCC3)c2)cc1-c1nnnn1-c1cccc(F)c1F [I-A-464] |
| 0.1 to 1 | CC(=O)Nc1ccc(-c2cnc(N)c(-c3nnnn3-c3cc(Cl)ccc3F)c2)cc1 [I-A-582] |
| ≤ 0.1 | CN(C)CC(=O)N1CCC(n2cc(-c3cnc(N)c(-c4nnnn4-c4cccc(Cl)c4F)c3)cn2)CC1 [I-A-444] |
| ≤ 0.1 | CCOC(=O)N1CCc2cc(-c3cnc(N)c(-c4nnnn4-c4cccc(F)c4F)c3)sc2CC1 [I-A-480] |
| 0.1 to 1 | Nc1ncc(-c2ccc(N3CCNCC3)cc2)cc1-c1nc2cccnc2n1-c1cccc(Cl)c1F [I-D-16] |
| ≤ 0.1 | CCCN1CCC(n2cc(-c3cnc(N)c(-c4nnnn4-c4cccc(Cl)c4F)c3)cn2)CC1 [I-A-470] |
| ≤ 0.1 | Cc1c(Cl)cccc1-n1nnnc1-c1cc(-c2cnn(C3CCNCC3)c2)cnc1N [I-A-624] |
| ≤ 0.1 | Nc1ncc(-c2cnn(C3CCN(C(=O)N4CCCC4)CC3)c2)cc1-c1nnnn1-c1cccc(Cl)c1F [I-A-443] |
| 0.1 to 1 | Nc1ncc(-c2cnn(C3CCNCC3)c2)cc1-c1nnnn1-c1cc(F)cc(F)c1Cl [I-A-634] |
| ≤ 0.1 | CN(C)Cc1ccc(-c2cnc(N)c(-c3nnnn3-c3c(Cl)cccc3Cl)c2)cc1 [I-A-629] |
